Measured values published in patent publication US20260206761A1, “HETEROARYL-TRIAZOLE COMPOUNDS AS PESTICIDES” (Bayer Aktiengesellschaft, priority 2019, published 2026).

Key:
Format in all cases: in vivo
[1] = test system: green peach aphid (Myzus persicae); assay: Myzus persicae oral test; conditions: 120 h, application rate 4 ppm, after 5 days
Summary of the method: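 Aphids of mixed population ingest the compound preparation by sucking through a parafilm sheet stretched over wells holding test solution plus IPL41 insect medium (33%+15% sugar). Kill rate in percent is determined five days later.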

[2] = test system: fall armyworm larvae (Spodoptera frugiperda); assay: Spodoptera frugiperda spray test; conditions: 168 h, read-out: activity (mortality)
Summary of the method: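 Larvae of fall armyworm placed on dried maize leaf sections previously sprayed with emulsified compound (acetone/DMF solvent, water with 1000 ppm emulsifier). Percent of caterpillars killed recorded on day 7, 0–100% scale.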

[3] = test system: Rhipicephalus microplus larvae (strain Parkhurst, resistant against synthetic pyrethroids); assay: Rhipicephalus (Boophilus) microplus in-vitro contact test, larval cattle tick; conditions: after 48 hours, read-out: activity (efficacy: larvae dead or moribund); for pest or weed control at 100 g/ha: application rate 1 pg/cm^2 (=100 g/ha); for pest or weed control at 500 g/ha: application rate 5 pg/cm^2 (=500 g/ha)
Summary of the method: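 Larvae (20-50 per tube) exposed to dry compound film on glass tube walls, 5 μg/cm^2 at 900 ppm, applied from acetone. After 48 h at 27° C./85% RH, tubes tapped and negative geotaxis scored; efficacy as percent dead or moribund larvae.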

[4] = test system: adult unfed cat fleas (Ctenocephalides felis); assay: Ctenocephalides felis oral test; conditions: 48 h, read-out: activity (mortality)
Summary of the method: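 About 20 adult unfed fleas fed through parafilm on cattle blood containing compound (DMSO stock diluted in blood), blood held at 37 °C and fleas at room temperature. Mortality (%) scored after 2 days.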

[5] = test system: Aedes aegypti strain MONHEIM; assay: Aedes aegypti test (AEDSAE surface treatment & contact assay); conditions: 24 hours after contact, read-out: efficacy (mortality); for mortality at 20 mg/m2: surface concentration 20 mg/m^2, exposure 30 minutes; for mortality at 4 mg/m2: surface concentration 4 mg/m^2, exposure 30 minutes
Summary of the method: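 Percent mortality was read 24 h after adult MONHEIM mosquitoes were held for 30 min on a tile treated with compound. Compound applied from acetone solution (2 mg/ml) containing 2000 ppm rapeseed oil methyl ester, after evaporation.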

[6] = test system: Culex quinquefasciatus strain P00; assay: Culex quinquefasciatus test (CULXFA surface treatment & contact assay); conditions: 24 hours after contact, read-out: efficacy (mortality)
Protocol: Culex quinquefasciatus Test (CULXFA Surface Treatment & Contact Assay)
Solvent: Aceton+2000 ppm rapeseed oil methyl ester (RME)
In order to produce a sufficient, active ingredient containing solution it is necessary to solve the test compound in the solvent-mix (acetone at 2 mg/ml/RME 2 000 ppm). This solution is pipetted onto a glazed tile and after evaporation of the acetone, adult mosquitoes of the species Culex quinquefasciatus strain P00 are placed onto the dried surface. The exposure time is 30 minutes. Mortality in percent (%) is determined 24 hours after contact of the insects to the treated surface. 100% mortality means that all tested insects are dead, whereas 0% means that no insect died.

[7] = test system: cattle ticks (Rhipicephalus microplus) strain Parkhurst, SP-resistant; assay: Rhipicephalus (Boophilus) microplus dip test; conditions: 168 h, application rate 100 ppm, egg deposition after 7 days, read-out: activity (efficacy: infertile eggs)
Protocol: Rhipicephalus (Boophilus) microplus—Din Test
Test animal: cattle ticks (Rhipicephalus microplus) strain Parkhurst, SP-resistant
Solvent: dimethyl sulfoxide
To produce a suitable preparation of active compound, 10 mg of active compound are dissolved in 0.5 mL solvent, and the concentrate is diluted with water to the desired concentration.
This compound solution is pipetted into tubes. 8-10 engorged, adult, female cattle ticks (Rhipicephalus microplus) are placed in perforated tubes. These tubes are immersed in the aqueous compound solution until the ticks are completely moistened. After the liquid has drained off, the ticks are transferred to a filter paper in a plastic tray and stored in a climate chamber.
After 7 days egg deposition of fertile eggs is monitored. Eggs where fertility is not visible are stored in a climate chamber till hatching after about 42 days. An efficacy of 100% means all eggs are infertile; 0% means all eggs are fertile.

[8] = test system: adult brown dog ticks (Rhipicephalus sanguineus); assay: Rhipicephalus sanguineus in-vitro contact test, adult brown dog ticks; conditions: after 48 hours, read-out: activity (efficacy: ticks dead or moribund); for pest or weed control at 100 g/ha: application rate 1 pg/cm^2 (=100 g/ha); for pest or weed control at 5 µg/cm2, 500 g/ha: application rate 5 μg/cm^2 (=500 g/ha)
Summary of the method: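 Glass tubes are coated with compound dissolved in acetone, a 900 ppm solution yielding 5 μg/cm^2 on the inner surface. Adult ticks (5-10 per tube) are kept on the dry film at room temperature for 48 h, then those unable to escape 45-50° C heat are counted as dead or moribund.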

[9] = test system: adult engorged female ticks (Rhipicephalus microplus); assay: Rhipicephalus (Boophilus) microplus injection test; conditions: 168 h, egg deposition after 7 days, read-out: activity (efficacy: infertile eggs); for pest or weed control at 4 pg: application rate 4 pg/animal; for pest or weed control at 0.02 mg: application rate 20 μg/animal
Summary of the method: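 Compound in DMSO (10 mg per 0.5 mL, then diluted with DMSO to test concentration); 1 μL injected into the abdomen of each of five engorged females, then held in a climate chamber. Fertile egg deposition checked at 7 days; efficacy 100% = all eggs infertile, 0% = all fertile.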

[10] = test system: southern root-knot nematode (Meloidogyne incognita); assay: Meloidogyne incognita test; conditions: 336 h, application rate 20 ppm, after 14 days, read-out: nematicidal activity (based on gall formation)
Protocol: Meloidoyne incognita—Test
Solvent: 125.0 parts by weight of acetone
To produce a suitable preparation of active compound, 1 part by weight of active compound is mixed with the stated amount of solvent, and the concentrate is diluted with water to the desired concentration.
Vessels are filled with sand, a solution of the active ingredient, a suspension containing eggs and larvae of the southern root-knot nematode (Meloidogyne incognita) and salad seeds. The salad seeds germinate and the seedlings grow. Galls develop in the roots.
After 14 days the nematicidal activity is determined based on the percentage of gall formation. 100% means no galls were found and 0% means the number of galls found on the roots of the treated plants was equal to that in untreated control plants.

[11] = test system: larvae of the banded cucumber beetle (Diabrotica balteata); assay: Diabrotica balteata spray test; conditions: 168 h, application rate 100 g/ha (=32 pg/well), after 7 days, read-out: activity (efficacy: seedlings grown)
Summary of the method: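 Read-out is % efficacy at day 7, 0% meaning no seedling growth and 100% growth equal to uninfested untreated controls. Test solutions (acetone/DMF concentrate diluted with water carrying 1000 ppm emulsifier) were sprayed onto 1-day-germinated wheat seeds, 5 per well, before infestation with 10-20 larvae.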

[12] = test system: green peach aphid (Myzus persicae); assay: Myzus persicae spray test; conditions: 120 h, application rate 100 g/ha, after 5 days
Summary of the method: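 Chinese cabbage leaf disks carrying all instars of M. persicae sprayed with compound in acetone/DMF, diluted in water with 1000 ppm alkylarylpolyglycol ether emulsifier. Percent mortality scored after 5 days (100% = all aphids killed).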

[13] = test system: adult cat fleas (Ctenocephalides felis); assay: Ctenocephalides felis in-vitro contact test, adult cat flea; conditions: application rate 5 μg/cm^2 (=500 g/ha), after 48 hours, read-out: activity (efficacy: fleas dead or moribund)
Summary of the method: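 Efficacy, as % of fleas dead or moribund, was read 48 h after 5-10 adult cat fleas were confined in glass tubes whose walls carried dried compound film (900 ppm, […]). Fleas failing to escape upward from a 45-50° C plate within 5 min counted as dead or moribund.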

[14] = test system: larvae of the southern green stink bug (Nezara viridula); assay: Nezara viridula spray test; conditions: 96 h, after 4 days; for mortality at 100 g/ha: application rate 100 g/ha; for mortality at 500 g/ha: application rate 500 g/ha
Summary of the method: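 Larva-infested barley (Hordeum vulgare) plants received a spray of test solution prepared from an acetone/DMF concentrate diluted in emulsifier-containing water (1000 ppm). Percent kill read 4 days later; 0% means no stink bugs dead.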

SMILES | mortality at 4 ppm [1] [%] | mortality at 100 g/ha [2] [%] | pest or weed control at 100 g/ha [3] [%] | pest or weed control at 500 g/ha [3] [%] | mortality at 100 ppm [4] [%] | mortality at 20 mg/m2 [5] [%] | pest or weed control at 100 g/ha [8] [%] | pest or weed control at 5 µg/cm2, 500 g/ha [8] [%] | pest or weed control at 4 pg [9] [%] | pest or weed control at 0.02 mg [9] [%] | pest or weed control at 20 ppm [10] [%] | pest or weed control at 100 g/ha [11] [%] | pest or weed control at 5 µg/cm2 [13] [%] | mortality at 100 g/ha [14] [%] | also measured
C[C@H](NC(=O)c1cc(C(F)(F)F)cc(S(=O)(=O)C2CC2)c1)c1nc(C2CC2)nn1-c1ccc(C#N)cn1 [I-15] | 100 | 100 | 100 | 100 | 100 | 80 to 100 | 100 | 100 | 100 | 100 |  |  |  |  | mortality at 4 mg/m2 ([6]; surface concentration 4 mg/m^2, exposure 30 minutes): 80 to 100%; pest or weed control at 100 ppm [7]: 80%
CC(C)c1nc([C@H](C)NC(=O)c2cc(Cl)cc(S(=O)(=O)C3CC3)c2)n(-c2ccc(C#N)cn2)n1 [I-18] | 100 |  | 90 | 90 | 80 |  |  | 100 | 100 | 100 | 100 | 100 |  |  | 
CC(C)c1nc([C@H](C)NC(=O)c2cc(Cl)cc(S(=O)(=O)CC(F)(F)F)c2)n(-c2ccc(C#N)cn2)n1 [I-21, 3-chloro-N-{(1S)-1-[1-(5-cyanopyridin-2-yl)-3-isopropyl-1H-1,2,4-triazol-5-yl]ethyl}-5-[(2,2,2-trifluoroethyl)sulfonyl]benzamide] |  |  |  |  |  |  |  |  | 100 | 100 | 90 |  |  |  | mortality at 100 g/ha [12]: 90%
C[C@H](NC(=O)c1cc(Cl)cc(S(=O)(=O)C2CC2)c1)c1nc(C2CC2)nn1-c1ccc(C#N)cn1 [I-22] | 100 | 100 | 100 | 100 | 100 |  |  | 80 | 100 | 100 | 100 | 100 |  |  | 
CCS(=O)(=O)c1cc(Cl)cc(C(=O)N[C@@H](C)c2ncnn2-c2ccc(C#N)cn2)c1 [II-20] | 100 | 83 | 100 | 100 |  | 80 to 100 |  |  | 100 | 100 | 90 |  | 100 | 100 | mortality at 500 g/ha [2]: 100%; mortality at 4 mg/m2 [5]: 80 to 100%; mortality at 20 mg/m2 ([6]; surface concentration 20 mg/m^2, exposure 30 minutes): 80 to 100%; mortality at 500 g/ha [14]: 100%
C[C@H](NC(=O)c1cc(Cl)cc(S(=O)(=O)C2CC2)c1)c1ncnn1-c1ccc(C#N)cn1 [II-21] | 100 | 100 | 100 | 100 |  | 80 to 100 |  |  | 100 | 100 | 90 |  | 100 | 90 | mortality at 500 g/ha [2]: 100%; mortality at 4 mg/m2 [5]: 80 to 100%; mortality at 500 g/ha [14]: 100%
C[C@H](NC(=O)c1cc(C(F)F)cc(C2CC2)c1)c1ncnn1-c1ccc(C#N)cn1 [II-60] | 100 | 100 | 100 | 100 | 90 |  | 100 | 100 | 100 |  | 90 | 100 | 100 | 90 | 
Cc1nc([C@H](C)NC(=O)c2cc(OC(F)F)cc(C3CC3)c2)n(-c2ccc(C#N)cn2)n1 [II-63] | 100 | 100 | 100 | 100 |  |  | 100 | 100 | 100 |  | 90 | 100 | 100 |  | mortality at 100 g/ha [12]: 100%
